The values below come from patent publication US20210179598A1, “SELECTIVE JAK2 INHIBITOR AND APPLICATION THEREOF” (EAST CHINA UNIVERSITY OF SCIENCE AND TECHNOLOGY, priority 2018, published 2021).

One data set has as its target ALK (Homo sapiens, UniProt Q9UM73). The data set can be described thus: ALK kinase IC50 test (HTRF). The format is biochemical. The note with it: Table 2. The source says: According to HTRF method, the peptide substrate was labeled with a biotin, which can specifically bind to XL665-labeled streptavidin. When the kinase adds a phosphate group to the polypeptide substrate in the first step, its Eu-labeled specific phosphorylation antibody can recognize and bind to it. In this way, in the second step of detection, a complex of XL665-labeled streptavidin, phosphorylated peptide substrate and Eu-labeled phosphorylation antibody can be formed. Since the distance between XL665 and Eu is short, FRET can be formed. On the other hand, Eu has a relatively long fluorescence half-life and can be applied to time-resolved fluorescence detection.
10 μL of reaction system, 4 μL test compound, 2 μL kinase, 2 μL biotin-labeled substrate and 2 μL ATP, was added into a 384-well plate, shaken for 30 s, and incubated at room temperature for 1 hour. 5 μL of Eu-labeled phosphorylation site-specific antibody and 5 μL of XL665-labeled streptavidin were added. The reaction system was shaken for 30 s, and incubated at room temperature for 1 hour. A microplate reader was used to detect the fluorescence signal. The inhibition rates of the compounds under 8 concentration gradients were determined, and the IC50 value of each compound was calculated by fitting curve with Origin 8.0. […] Each experiment was performed in triplicate.
(§1) NOTE: HEL, SET-2, H3122 cells were purchased from ATCC (American type culture collection), Z′-LYTETM kinase assay platform was purchased from Invitrogen, HTRF KinEASETM-TK was purchased from Cisbio, and Cell Counting Kit-8 was purchased from Beyotime.
On the technique in general: Time-resolved FRET reads energy transfer from a long-lived donor to a nearby acceptor.

Another data set addresses JAK2 (Homo sapiens, UniProt O60674). The data set can be described thus: JAK2 kinase activity test at molecular level (Z'-LYTE FRET). Format: biochemical. Here is the method:
JAK2 can catalyze the transfer of a phosphate group of adenosine triphosphate (ATP) to a polypeptide substrate, and the polypeptide substrate is labeled with two fluorescent groups, coumarin and fluorescein. […] Therefore, the inhibition rates of different compounds can be calculated by measuring the ratio of enzyme-catalyzed substrate phosphorylation percentages.
10 μL reaction system, 2.5 μL test compound, 5 μL kinase/peptide substrate mixture and 2.5 μL ATP solution were added into a 384-well plate, shaken for 30 s, and incubated at room temperature for 1 hour. 5 μL of proteolytic enzyme and 15 μL of the reaction system were added and shaken for 30 s and incubated at room temperature for 1 h. 5 μL of stop reagent was added, and the reaction system with a total volume of 20 μL was shaken for 30 seconds. A microplate reader was used to detect the fluorescence signal. […] The inhibition rates of the compound at 7 concentration gradients were determined, and the IC50 value for each compound was calculated by fitting curve with Origin 8.0.
as §1

For another data set, the system named is H3122 cells. The data set can be described thus: CCK-8 cell proliferation detection, H3122 cells. The settings on record: Homo sapiens, NCI-H3122; Table 2; CCK-8, 72 hrs. Format: cell-based.
Source text: (§2) WST-8 (chemical name: 2-(2-methoxy-4-nitrophenyl)-3-(4-nitrophenyl)-5-(2,4-disulfo benzene)-2H-tetrazolium monosodium), which is reduced to a highly water-soluble yellow formazan product (Formazan dye) by the dehydrogenase in cells under the action of the electron carrier dimethyl 1-methoxy-5-methylphenazinium sulfate (1-Methoxy PMS). The amount of the produced formazan is proportional to the number of living cells. Therefore, the survival rate of cells can be calculated indirectly by measuring the absorbance at 450 nm. The half inhibition rate of the compound on the proliferation of H3122, SET2, HEL cells can be determined by the CCK-8 method.
(§3) RPIM medium containing 10% FBS was used to culture cells (100 μL per well), and 3500 cells were inoculated into a 96-well plate, and placed in a 37° C., 5% CO2 incubator for 24 h, until 50%-70% of the cell confluence was achieved. Drugs with different concentration gradients were added respectively, and incubated for another 72 hrs. […] And finally the absorption value of each well was measured at 450 nm.
as §1

A further data set deals with HEL (JAK2 V617F) cells. The data set can be described thus: CCK-8 cell proliferation detection, HEL cells. Format: cell-based. The settings on record: Homo sapiens, Table 2, CCK-8, 72 hrs.
Source text: as §2, §3, §1

A further data set has as its system SET 2 (JAK2 V617F) cells. The data set can be described thus: CCK-8 cell proliferation detection, SET2 cells. Format: cell-based. The note with it: Homo sapiens, SET-2; Table 2; CCK-8, 72 hrs.
Source text: as §2, §3, §1

Setting [1] is: Table 1, read-out: JAK2 kinase activity IC50.

Each structure is given as a SMILES string. Read-outs that look alike come from different tables or passages of the source.

Chain of ALK (Q9UM73 19-1620, species assumed): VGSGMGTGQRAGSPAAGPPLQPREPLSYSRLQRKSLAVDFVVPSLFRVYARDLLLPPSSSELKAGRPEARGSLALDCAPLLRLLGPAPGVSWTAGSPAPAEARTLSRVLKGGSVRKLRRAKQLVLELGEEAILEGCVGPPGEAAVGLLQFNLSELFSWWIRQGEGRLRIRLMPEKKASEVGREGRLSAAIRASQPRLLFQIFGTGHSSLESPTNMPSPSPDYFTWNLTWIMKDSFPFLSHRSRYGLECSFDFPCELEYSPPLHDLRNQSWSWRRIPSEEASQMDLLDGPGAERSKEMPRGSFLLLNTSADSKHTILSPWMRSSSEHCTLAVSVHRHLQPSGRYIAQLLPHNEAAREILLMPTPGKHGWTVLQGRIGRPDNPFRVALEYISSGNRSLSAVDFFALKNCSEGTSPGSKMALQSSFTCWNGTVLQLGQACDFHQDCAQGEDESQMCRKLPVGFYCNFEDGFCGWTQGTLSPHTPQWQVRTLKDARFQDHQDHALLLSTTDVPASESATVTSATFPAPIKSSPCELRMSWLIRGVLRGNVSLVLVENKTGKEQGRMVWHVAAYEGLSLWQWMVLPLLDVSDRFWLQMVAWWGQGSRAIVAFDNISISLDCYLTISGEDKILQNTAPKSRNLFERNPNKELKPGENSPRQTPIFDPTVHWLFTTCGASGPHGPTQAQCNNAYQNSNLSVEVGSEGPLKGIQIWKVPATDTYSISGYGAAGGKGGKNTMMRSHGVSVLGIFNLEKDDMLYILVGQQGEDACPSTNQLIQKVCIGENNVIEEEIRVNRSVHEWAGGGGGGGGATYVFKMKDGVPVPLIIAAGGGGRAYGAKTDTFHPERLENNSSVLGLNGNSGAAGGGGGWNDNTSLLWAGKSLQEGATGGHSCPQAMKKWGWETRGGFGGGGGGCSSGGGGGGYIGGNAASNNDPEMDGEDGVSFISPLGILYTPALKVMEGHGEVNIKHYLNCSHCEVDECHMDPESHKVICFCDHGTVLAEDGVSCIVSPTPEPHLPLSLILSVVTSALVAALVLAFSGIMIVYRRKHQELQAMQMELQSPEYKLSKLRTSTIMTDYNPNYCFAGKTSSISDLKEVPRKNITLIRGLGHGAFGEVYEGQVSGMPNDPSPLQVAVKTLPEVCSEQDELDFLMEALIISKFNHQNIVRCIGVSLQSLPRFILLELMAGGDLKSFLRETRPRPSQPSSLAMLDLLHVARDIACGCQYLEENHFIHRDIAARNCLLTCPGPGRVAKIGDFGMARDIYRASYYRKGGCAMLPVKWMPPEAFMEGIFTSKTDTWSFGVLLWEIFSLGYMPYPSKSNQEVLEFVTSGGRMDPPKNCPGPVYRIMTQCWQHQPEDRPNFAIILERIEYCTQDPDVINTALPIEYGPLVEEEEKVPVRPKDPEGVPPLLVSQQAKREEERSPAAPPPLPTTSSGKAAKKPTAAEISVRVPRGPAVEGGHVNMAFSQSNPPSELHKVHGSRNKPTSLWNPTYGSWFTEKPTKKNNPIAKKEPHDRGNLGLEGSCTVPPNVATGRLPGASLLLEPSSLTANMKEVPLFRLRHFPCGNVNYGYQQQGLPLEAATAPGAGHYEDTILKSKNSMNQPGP
Chain of JAK2 (O60674 whole entry): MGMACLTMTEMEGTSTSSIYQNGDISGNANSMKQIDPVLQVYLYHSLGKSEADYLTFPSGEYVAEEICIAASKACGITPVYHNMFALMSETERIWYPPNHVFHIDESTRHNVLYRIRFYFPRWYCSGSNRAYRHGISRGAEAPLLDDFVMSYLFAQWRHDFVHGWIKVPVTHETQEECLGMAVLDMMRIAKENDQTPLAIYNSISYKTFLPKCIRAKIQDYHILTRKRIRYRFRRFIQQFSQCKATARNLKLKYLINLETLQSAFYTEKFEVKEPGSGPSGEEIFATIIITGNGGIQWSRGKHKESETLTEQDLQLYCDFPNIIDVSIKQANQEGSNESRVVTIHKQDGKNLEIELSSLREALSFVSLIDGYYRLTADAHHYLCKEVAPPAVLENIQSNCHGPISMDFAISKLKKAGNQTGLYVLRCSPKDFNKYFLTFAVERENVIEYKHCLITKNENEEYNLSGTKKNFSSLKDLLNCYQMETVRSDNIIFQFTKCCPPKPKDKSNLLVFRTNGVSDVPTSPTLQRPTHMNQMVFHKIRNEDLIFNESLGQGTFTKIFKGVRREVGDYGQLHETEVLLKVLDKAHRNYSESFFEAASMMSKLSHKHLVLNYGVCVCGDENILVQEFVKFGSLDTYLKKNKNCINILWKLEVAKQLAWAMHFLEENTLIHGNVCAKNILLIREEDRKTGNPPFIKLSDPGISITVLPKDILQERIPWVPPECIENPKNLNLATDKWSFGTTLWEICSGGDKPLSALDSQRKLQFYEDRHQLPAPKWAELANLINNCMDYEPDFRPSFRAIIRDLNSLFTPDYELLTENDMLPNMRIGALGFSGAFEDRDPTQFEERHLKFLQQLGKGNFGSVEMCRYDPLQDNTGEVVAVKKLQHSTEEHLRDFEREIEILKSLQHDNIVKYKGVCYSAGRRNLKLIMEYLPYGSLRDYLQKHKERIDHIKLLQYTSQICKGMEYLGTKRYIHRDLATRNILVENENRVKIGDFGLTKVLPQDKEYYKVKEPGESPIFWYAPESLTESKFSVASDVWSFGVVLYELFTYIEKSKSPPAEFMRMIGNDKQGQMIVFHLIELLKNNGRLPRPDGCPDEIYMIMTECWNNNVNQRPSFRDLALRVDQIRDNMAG

For `CC(Oc1cc(-c2cn[nH]c2)cnc1N)c1cc(F)ccc1Cl` (centres unmarked) [WWQ-1093-81, 3-(1-(2-chloro-5-fluorophenyl)ethoxy)-2-amino-5-pyrazolepyridine], the melting point (commonly the temperature, or range, at which the solid turns liquid) was 183.8 to 184.6 °C. For the same molecule, on ALK, the concentration for half-maximal inhibition (IC50) – broadly, the point on the concentration scale where inhibition reaches its midpoint – turned out to be 334 nM. For the same molecule, at JAK2 (setting [1]), the IC50 amounted to 16 ± 0.1 nM. Besides, on JAK2 (Table 2, read-out: JAK2 IC50), the IC50 was determined as 16 ± 0.1 nM. In addition, the IC50 in the data set on H3122 cells is 2550 ± 160 nM. In addition, the IC50 in the data set on HEL (JAK2 V617F) cells worked out at 4700 nM. The molecule also had an IC50 in the data set with SET 2 (JAK2 V617F) cells of 5550 nM.

For the molecule `CC(Oc1cc(-c2ccccc2)cnc1N)c1c(Cl)ccc(F)c1Cl` (centres unmarked) [WWQ-1093-83], the melting point was in the range of 160.4 to 161.4 °C. The IC50 against ALK was over 10000 nM. Besides, the IC50 at JAK2 (Table 2, read-out: JAK2 IC50) was over 10000 nM. Further, it took 6060 ± 81 nM to reach half-maximal inhibition with H3122 cells (IC50). In addition, in the data set with HEL (JAK2 V617F) cells, half-maximal inhibition (IC50) required 11300 nM. In addition, it took 11600 nM to reach half-maximal inhibition in the data set on SET 2 (JAK2 V617F) cells (IC50).

The molecule `CC(Oc1cc(-c2ccc(N3CCNCC3)cc2)cnc1N)c1cc(F)ccc1Cl` (centres unmarked) [WWQ-1093-85] yielded a melting point of 191.1 to 193.7 °C. This molecule yielded an IC50 on ALK of 498 nM. Besides, the IC50 at JAK2 (setting [1]) turned out to be 37 ± 3 nM. Further, the IC50 on JAK2 (Table 2, read-out: JAK2 IC50) is 37 ± 3 nM. In addition, in the data set on H3122 cells, the IC50 is 1140 ± 12 nM. This molecule came in with an IC50 in the data set with HEL (JAK2 V617F) cells of 35800 nM. For the same molecule, the IC50 with SET 2 (JAK2 V617F) cells was 8260 nM.

For `CC(Oc1cc(-c2ccc(C3CCNCC3)cc2)cnc1N)c1cc(F)ccc1Cl` (centres unmarked) [WWQ-1093-87], the melting point was in the range of 189.8 to 191 °C. On ALK, this molecule returned an IC50 of 545 nM. Also, the IC50 on JAK2 (setting [1]) turned out to be 48 ± 8 nM. Further, the IC50 on JAK2 (Table 2, read-out: JAK2 IC50) came out at 48 ± 8 nM. This molecule showed an IC50 with H3122 cells of over 10000 nM. In the data set with HEL (JAK2 V617F) cells, 35400 nM corresponded to half-maximal inhibition (IC50). The molecule further displayed an IC50 with SET 2 (JAK2 V617F) cells of 9700 nM.

As for `CC(Oc1cc(-c2cccc(N3CCNCC3)c2)cnc1N)c1cc(F)ccc1Cl` (centres unmarked) [WWQ-1093-89], the melting point was 190.8 to 191.6 °C. The same molecule came in with an IC50 against ALK of 334 nM. The IC50 at JAK2 (setting [1]) was found to be 27 ± 2 nM. The IC50 on JAK2 (Table 2, read-out: JAK2 IC50) is 27 ± 2 nM. Further, the IC50 in the data set on H3122 cells was under 500 nM. The molecule further displayed an IC50 in the data set on HEL (JAK2 V617F) cells of 8430 nM. The same molecule came in with an IC50 with SET 2 (JAK2 V617F) cells of 2260 nM.

Molecule `CC(Oc1cc(-c2cccc(C3CCNCC3)c2)cnc1N)c1cc(F)ccc1Cl` (centres unmarked) [WWQ-1093-91] yielded a melting point of 192.1 to 193.4 °C. The midpoint of inhibition at ALK, the IC50, lay at 1250 nM. The IC50 on JAK2 (setting [1]) came out at 35 ± 1 nM. Further, the IC50 on JAK2 (Table 2, read-out: JAK2 IC50) came out at 35 ± 1 nM. The same molecule showed an IC50 with H3122 cells of 956 nM. The same molecule gave an IC50 with HEL (JAK2 V617F) cells of 8770 nM. Also, the IC50 with SET 2 (JAK2 V617F) cells worked out at 2360 nM.
